For assay [1], the target named is purified human Factor XIa (Homo sapiens (Human), UniProt P03951). The experiment in a line: Factor XIa enzyme inhibition assay (chromogenic substrate S-2366).
Assay [2] has as its target purified human plasma kallikrein (Homo sapiens (Human), UniProt P03952). Put plainly: Plasma kallikrein enzyme inhibition assay (chromogenic substrate S-2302). The assay is classed as biochemical.
The mark [3] stands for this setting: read-out: Factor XIa Ki, measured at 25° C.
[4] abbreviates: measured at 25° C. (no asterisk).

Structures can show the parent of a compound that is named as a salt. Where two headings read alike, the source gives them in different places.

Drawing on US9738655B2, “Tetrahydroisoquinolines containing substituted azoles as factor XIa inhibitors” (BRISTOL-MYERS SQUIBB COMPANY, priority 2013, dated 2017), this text covers Ki for 16 compounds.

purified human plasma kallikrein, sequence (P03952 391-638): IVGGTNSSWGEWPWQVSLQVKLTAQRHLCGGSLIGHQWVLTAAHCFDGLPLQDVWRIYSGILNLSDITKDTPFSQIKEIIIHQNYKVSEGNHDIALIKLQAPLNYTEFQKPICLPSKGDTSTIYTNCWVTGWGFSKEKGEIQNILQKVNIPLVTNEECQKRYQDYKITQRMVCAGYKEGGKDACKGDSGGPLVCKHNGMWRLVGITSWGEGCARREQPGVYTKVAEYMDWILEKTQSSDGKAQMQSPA
purified human plasma kallikrein, sequence (P03952 20-390 partner): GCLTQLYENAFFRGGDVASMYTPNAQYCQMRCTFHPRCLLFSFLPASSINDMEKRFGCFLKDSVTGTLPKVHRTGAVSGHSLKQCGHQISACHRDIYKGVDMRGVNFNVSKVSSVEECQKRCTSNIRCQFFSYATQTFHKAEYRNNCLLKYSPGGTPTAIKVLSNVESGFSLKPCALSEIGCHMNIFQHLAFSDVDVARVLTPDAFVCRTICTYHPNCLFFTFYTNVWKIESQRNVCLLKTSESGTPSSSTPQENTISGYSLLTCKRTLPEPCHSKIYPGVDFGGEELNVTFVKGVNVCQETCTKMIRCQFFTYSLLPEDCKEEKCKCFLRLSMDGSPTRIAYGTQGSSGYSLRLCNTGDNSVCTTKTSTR
purified human Factor XIa, sequence (P03951 388-625): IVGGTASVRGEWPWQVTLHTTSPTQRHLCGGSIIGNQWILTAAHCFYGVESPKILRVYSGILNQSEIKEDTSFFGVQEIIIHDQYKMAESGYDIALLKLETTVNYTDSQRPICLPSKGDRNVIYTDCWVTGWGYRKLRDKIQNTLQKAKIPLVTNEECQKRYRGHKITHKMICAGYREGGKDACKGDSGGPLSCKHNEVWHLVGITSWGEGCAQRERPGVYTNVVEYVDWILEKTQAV
purified human Factor XIa, sequence (P03951 19-387 partner): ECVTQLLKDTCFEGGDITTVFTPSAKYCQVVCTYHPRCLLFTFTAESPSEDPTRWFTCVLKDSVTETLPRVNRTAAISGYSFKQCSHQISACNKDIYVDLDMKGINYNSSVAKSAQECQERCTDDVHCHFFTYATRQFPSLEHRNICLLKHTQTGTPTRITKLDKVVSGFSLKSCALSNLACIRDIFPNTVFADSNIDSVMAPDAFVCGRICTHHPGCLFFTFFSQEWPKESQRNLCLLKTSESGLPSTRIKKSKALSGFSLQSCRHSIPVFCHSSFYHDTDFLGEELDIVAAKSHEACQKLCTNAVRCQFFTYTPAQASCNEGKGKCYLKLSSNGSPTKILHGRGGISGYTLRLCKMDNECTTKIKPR

By Ki is commonly meant a dissociation constant, usually derived from enzyme kinetics or from competition with a known ligand. For “4-(2-(3-Amino-1-(3-chloro-2-fluorophenyl)-1H-pyrazole-4-carbonyl)-5-(4-(2-(dimethylamino)ethoxy)piperidin-1-yl)-1,2,3,4-tetrahydroisoquinoline-1-carboxamido)benzoic acid, 2 TFA salt [Example 319]”, the figures for the Ki in assay [1] (setting [3]) and in assay [2] (setting [4]) were under 5 nM and 6.41 nM, respectively. For the compound “4-(2-(5-amino-1-(3-chloro- 2-fluorophenyl)-1H- pyrazole-4-carbonyl)-5-(4- (pyrrolidin-1- yl)piperidin-1-yl)-1,2,3,4- tetrahydroisoquinoline-1- carboxamido)benzoic acid, 3TFA salt [Example 213]”, the figures for the Ki in assay [1] (read-out: Factor XIa Ki) and in assay [2] (setting [4]) were under 5 nM and 12.2 nM, respectively. As for “4-(2-(5-amino-1-(3-chloro- 2-fluorophenyl)-1H- pyrazole-4-carbonyl)-5-(4- methylpiperazin-1- yl)-1,2,3,4- tetrahydroisoquinoline-1- carboxamido)benzoic acid, 2 TFA salt [Example 212]”, the results for the Ki in assay [1] (setting [3]) and in assay [2] (setting [4]) were 20.9 nM and 2.89 nM, respectively. For `CO[C@@H]1CCN(c2cccc3c2CCN(C(=O)c2cn(-c4cccc(Cl)c4F)nn2)C3C(=O)Nc2ccc(C(=O)O)cc2)C1` (mixture of isomers) [Example 84, 4-(2-(1-(3-chloro-2-fluorophenyl)-1H-1,2,3-triazole-4-carbonyl)-5-((R)-3-methoxypyrrolidin-1-yl)-1,2,3,4-tetrahydroisoquinoline-1-carboxamido)benzoic acid, TFA salt] the same measures were under 5 nM and 15.8 nM. Regarding `COC1CCN(c2cccc3c2CCN(C(=O)c2cnn(-c4cccc(Cl)c4F)c2)C3C(=O)Nc2ccc(C(=O)O)cc2)CC1` (racemic) [Example 252, 4-(2-(1-(3-chloro-2-fluorophenyl)-1H-pyrazole-4-carbonyl)-5-(4-methoxypiperidin-1-yl)-1,2,3,4-tetrahydroisoquinoline-1-carboxamido)benzoic acid, TFA salt], the values for the Ki in assay [1] and in assay [2] (setting [4]) were under 5 nM and 42.8 nM, respectively. On to `COC1CCN(c2cccc3c2CCN(C(=O)c2nnn(-c4cccc(Cl)c4F)c2C)C3C(=O)Nc2ccc(C(=O)O)cc2)CC1` (racemic) [Example 253, 4-(2-(1-(3-chloro-2-fluorophenyl)-5-methyl-1H-1,2,3-triazole-4-cabonyl)-5-(4-methoxypiperidin-1-yl)-1,2,3,4-tetrahydroisoquinoline-1-carboxamido)benzoic acid, TFA salt], for which the Ki amounted to 11.1 nM in assay [1] and 156 nM in assay [2] (setting [4]). Regarding `COC1CCN(c2cccc3c2CCN(C(=O)c2cn(-c4c(F)ccc(Cl)c4F)nn2)C3C(=O)Nc2ccc(C(=O)O)cc2)CC1` (racemic) [Example 254, 4-(2-(1-(3-chloro-2,6-difluorophenyl)-1H-1,2,3-triazole-4-carbonyl)-5-(4-methoxypiperidin-1-yl)-1,2,3,4-tetrahydroisoquinoline-1-carboxamido)benzoic acid, TFA salt], the Ki was under 5 nM in assay [1] and 26.7 nM in assay [2] (setting [4]). For `COC1CCN(c2cccc3c2CCN(C(=O)c2cnn(-c4cccc(Cl)c4F)c2C)C3C(=O)Nc2ccc(C(=O)O)cc2)CC1` (racemic) [Example 259, 4-(2-(1-(3-chloro-2-fluorophenyl)-5-methyl-1H-pyrazole-4-carbonyl)-5-(4-methoxypiperidin-1-yl)-1,2,3,4-tetrahydroisoquinoline-1-carboxamido)benzoic acid, TFA salt] the same measures were under 5 nM and 77.9 nM. For `COC1CCN(c2cccc3c2CCN(C(=O)c2cn(-c4cccc(Cl)c4F)nc2O)C3C(=O)Nc2ccc(C(=O)O)cc2)CC1` (racemic) [Example 264, 4-(2-(1-(3-chloro-2-fluorophenyl)-3-hydroxy-1H-pyrazole-4-carbonyl)-5-(4-methoxypiperidin-1-yl)-1,2,3,4-tetrahydroisoquinoline-1-carboxamido)benzoic acid, TFA salt] the same measures were under 5 nM and 11.1 nM.

On to `COC1CCN(c2cccc3c2CCN(C(=O)c2cc(-c4c(F)ccc(Cl)c4F)no2)C3C(=O)Nc2ccc(C(=O)O)cc2)CC1` (racemic) [Example 265, 4-(2-(3-(3-chloro-2,6-difluorophenyl)isoxazole-5-carbonyl)-5-(4-methoxypiperidin-1-yl)-1,2,3,4-tetrahydroisoquinoline-1-carboxamido)benzoic acid, TFA salt], for which the inhibition constant Ki in assay [1] stood at 13.2 nM; in assay [2] (setting [4]), 178 nM.

Regarding `COC1CCN(c2cccc3c2CCN(C(=O)c2cc(-c4cccc(Cl)c4F)no2)C3C(=O)Nc2ccc(C(=O)O)cc2)CC1` (racemic) [Example 268, 4-(2-(3-(3-chloro-2-fluorophenyl)isoxazole-5-carbonyl)-5-(4-methoxypiperidin-1-yl)-1,2,3,4-tetrahydroisoquinoline-1-carboxamido)benzoic acid, TFA salt], the Ki in assay [1] came out at 1430 nM; in assay [2] (measured at 37° C. (*)), 178 nM.

Consider `COC1CCN(c2cccc3c2CCN(C(=O)c2cc(-c4cccc(Cl)c4F)ns2)C3C(=O)Nc2ccc(C(=O)O)cc2)CC1` (racemic) [Example 269, 4-(2-(3-(3-chloro-2-fluorophenyl)isothiazole-5-carbonyl)-5-(4-methoxypiperidin-1-yl)-1,2,3,4-tetrahydroisoquinoline-1-carboxamido)benzoic acid, TFA salt], for which the Ki is 33.5 nM in assay [1] and 205 nM in assay [2] (setting [4]). With `COC1CCN(c2cccc3c2CCN(C(=O)c2cnc(-c4cccc(Cl)c4F)s2)C3C(=O)Nc2ccc(C(=O)O)cc2)CC1` (racemic) [Example 270, 4-(2-(2-(3-chloro-2-fluorophenyl)thiazole-5-carbonyl)-5-(4-methoxypiperidin-1-yl)-1,2,3,4-tetrahydroisoquinoline-1-carboxamido)benzoic acid, TFA salt], the values for the Ki in assay [1] and in assay [2] (setting [4]) were 20.4 nM and 269 nM, respectively. On to `COC1CCN(c2cccc3c2CCN(C(=O)c2cn(-c4cccc(Cl)c4F)cn2)C3C(=O)Nc2ccc(C(=O)O)cc2)CC1` (racemic) [Example 271, 4-(2-(1-(3-chloro-2-fluorophenyl)-1H-imidazole-4-carbonyl)-5-(4-methoxypiperidin-1-yl)-1,2,3,4-tetrahydroisoquinoline-1-carboxamido)benzoic acid, TFA salt], for which the inhibition constant (Ki) in assay [1] was under 5 nM; in assay [2] (setting [4]) it was 7.65 nM. In assay [2] (measured at 37° C. (*)), `CC(C)c1nnc2n1CCN(c1cccc3c1CCN(C(=O)[C@@H]1CC(c4cccc(Cl)c4F)=NO1)[C@@H]3C(=O)Nc1ccc(C(=O)O)cc1)C2` [Example 338, 4-((S)-2-((S)-3-(3-Chloro-2-fluorophenyl)-4,5-dihydroisoxazole-5-carbonyl)-5-(3-isopropyl-5,6-dihydro-[1,2,4]triazolo[4,3-a]pyrazin-7(8H)-yl)-1,2,3,4-tetrahydroisoquinoline-1-carboxamido)benzoic acid, TFA salt] returned a Ki of 251 nM. Still for that read-out and setting: with `CC(C)c1nnc2n1CCN(c1cccc3c1CCN(C(=O)[C@@H]1CC(c4cccc(Cl)c4F)=NO1)[C@H]3C(=O)Nc1ccc(C(=O)O)cc1)C2` [Example 339, 4-((R)-2-((S)-3-(3-Chloro-2-fluorophenyl)-4,5-dihydroisoxazole-5-carbonyl)-5-(3-isopropyl-5,6-dihydro-[1,2,4]triazolo[4,3-a]pyrazin-7(8H)-yl)-1,2,3,4-tetrahydroisoquinoline-1-carboxamido)benzoic acid, TFA salt] the figure was 84.6 nM.
